Experimental data taken from patent US9708314B2, “Heterocyclic amide compound” (NISSAN CHEMICAL INDUSTRIES, LTD., priority 2013, dated 2017).

Legend:
Format in all cases: in vivo
[1] = test system: Echinochloa oryzacola Vasing.; experiment: Test Example 2: herbicidal activity, application during weed generation in submerged conditions; conditions: Eighteenth Table; application herbicide amount 320 g/ha
Outline: (§1)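 Paddy-type pot test: flooded soil, 4 cm depth, greenhouse 25–30 °C. Emulsion formulation diluted in water, applied to water surface at 1–2 leaf stage; rate expressed as g/ha. Read-out at 3 wk, 0–5 score.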

[2] = test system: Monochoria vaginalis; experiment: as above; conditions: Eighteenth Table; application herbicide amount 320 g/ha
Outline: as §1

[3] = test system: Scirpus juncoides; experiment: as above; conditions: Eighteenth Table; application herbicide amount 320 g/ha
Outline: as §1

[4] = test system: Abutilon theophrasti; experiment: Test Example 4: herbicidal effect by application to foliage (diluvial soil, plastic box); conditions: foliage application, 320 g/ha
Outline: (§2)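 Read-out is a 0–5 visual grade of herbicidal ratio (5: ≥90%, almost withered; 0: ≤5%) taken three weeks after treatment. Compound was applied as a diluted emulsion to stem and leaf parts of 14-day greenhouse-grown plants (25° C. to 30° C.) at rates expressed as g/ha.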

[5] = test system: Alopecurus myosuroides; experiment: as above; conditions: foliage application, 320 g/ha
Outline: as §2

[6] = test system: Amaranthus retroflexus; experiment: as above; conditions: foliage application, 320 g/ha
Outline: as §2

[7] = test system: Apera spica-venti.; experiment: as above; conditions: foliage application, 320 g/ha
Outline: as §2

[8] = test system: Avena fatua; experiment: as above; conditions: foliage application, 320 g/ha
Outline: as §2

[9] = test system: Chenopodium album; experiment: as above; conditions: foliage application, 320 g/ha
Outline: as §2

[10] = test system: Digitaria ciliaris; experiment: as above; conditions: foliage application, 320 g/ha
Outline: as §2

[11] = test system: Echinochloa crus-galli var. crus-galli; experiment: as above; conditions: foliage application, 320 g/ha
Outline: as §2

[12] = test system: Galium spurium; experiment: as above; conditions: foliage application, 320 g/ha
Outline: as §2

[13] = test system: Lolium multiflorum Lam.; experiment: as above; conditions: foliage application, 320 g/ha
Outline: as §2

[14] = test system: Setaria viridis; experiment: as above; conditions: foliage application, 320 g/ha
Outline: as §2

[15] = test system: Stellaria media; experiment: as above; conditions: foliage application, 320 g/ha
Outline: as §2

[16] = test system: Veronica persica; experiment: as above; conditions: foliage application, 320 g/ha
Outline: as §2

[17] = test system: Beta vulgaris ssp. vulgaris; experiment: Test Example 4: effect on crop by application to foliage (diluvial soil, plastic box); conditions: foliage application, 320 g/ha
Outline: as §2

[18] = test system: Brassica campestris L.; experiment: as above; conditions: foliage application, 320 g/ha
Outline: as §2

[19] = test system: Glycine max; experiment: as above; conditions: foliage application, 320 g/ha
Outline: as §2

[20] = test system: Triticum aestivum; experiment: as above; conditions: foliage application, 320 g/ha
Outline: as §2

[21] = test system: Zea mays; experiment: as above; conditions: foliage application, 320 g/ha
Outline: as §2

[22] = test system: directly sowed Oryza sativa; experiment: as above; conditions: foliage application, 320 g/ha
Outline: as §2

## CCCSc1nnc2c(C(=O)Nc3nnnn3C)ccc(C(F)(F)F)n12 [2-068]
[1]
  A (Echinochloa oryzicola Vasing.) herbicidal ratio grade: 5 (Herbicidal ratio of 90% or more (almost completely withered))
[2]
  C (Monochoria vaginalis) herbicidal ratio grade: 4 (Herbicidal ratio of 70% or more and less than 90%)
[3]
  B (Scirpus juncoides) herbicidal ratio grade: 5 (Herbicidal ratio of 90% or more (almost completely withered))
[4]
  M (Abutilon theophrasti) herbicidal effect grade: 5 (Herbicidal ratio of 90% or more (almost completely withered))
[5]
  J (Alopecurus myosuroides) herbicidal effect grade: 2 (Herbicidal ratio of 20% or more and less than 40%)
[6]
  N (Amaranthus retroflexus) herbicidal effect grade: 5 (Herbicidal ratio of 90% or more (almost completely withered))
[7]
  L (Apera spica-venti.) herbicidal effect grade: 3 (Herbicidal ratio of 40% or more and less than 70%)
[8]
  I (Avena fatua) herbicidal effect grade: 3 (Herbicidal ratio of 40% or more and less than 70%)
[9]
  O (Chenopodium album) herbicidal effect grade: 5 (Herbicidal ratio of 90% or more (almost completely withered))
[10]
  F (Digitaria ciliaris) herbicidal effect grade: 5 (Herbicidal ratio of 90% or more (almost completely withered))
[11]
  H (Echinochloa crus-galli var. crus-galli) herbicidal effect grade: 5 (Herbicidal ratio of 90% or more (almost completely withered))
[12]
  Q (Galium spurium) herbicidal effect grade: 4 (Herbicidal ratio of 70% or more and less than 90%)
[13]
  K (Lolium multiflorum Lam.) herbicidal effect grade: 2 (Herbicidal ratio of 20% or more and less than 40%)
[14]
  G (Setaria viridis) herbicidal effect grade: 5 (Herbicidal ratio of 90% or more (almost completely withered))
[15]
  P (Stellaria media) herbicidal effect grade: 5 (Herbicidal ratio of 90% or more (almost completely withered))
[16]
  R (Veronica persica) herbicidal effect grade: 5 (Herbicidal ratio of 90% or more (almost completely withered))
[17]
  f (Beta vulgaris ssp. vulgaris) effect on crop grade: 5 (Herbicidal ratio of 90% or more (almost completely withered))
[18]
  g (Brassica campestris L.) effect on crop grade: 4 (Herbicidal ratio of 70% or more and less than 90%)
[19]
  c (Glycine max) effect on crop grade: 3 (Herbicidal ratio of 40% or more and less than 70%)
[20]
  e (Triticum aestivum) effect on crop grade: 2 (Herbicidal ratio of 20% or more and less than 40%)
[21]
  b (Zea mays) effect on crop grade: 5 (Herbicidal ratio of 90% or more (almost completely withered))
[22]
  d (directly sowed Oryza sativa) effect on crop grade: 4 (Herbicidal ratio of 70% or more and less than 90%)
